Measurements: patent US8541437B2, “Substituted 2,3,4,5-tetrahydro-1H-pyrido[4,3-b]indoles, methods for the production and use thereof” (Alla Chem, LLC, priority 2007, dated 2013)

Legend:
BALB/c male mice [1] = assay: Passive Avoidance of Mice in the Shuttle Chamber, scopolamine or MK-801 (Example 8); format: in vivo; conditions: scopolamine 0.3 mg/kg or MK-801 0.1 mg/kg
Description: A shuttle chamber (Ugo Basile, Italy) consisted of two sections was used. […] The sections were connected through a hole which could be shut with a vertical door. The floor was made of transverse metal bars on which DC current impulses could be fed. Experiments were carried out in aged male mice of BALB/c line weighing 20-24 grams.
On the first day of the experiment 30 minutes before training the mice were injected intraintestinally with physiological solution of scopolamine (0.3 mg/kg) or Scopolamine in combination with antagonists of 5-HT6 receptors 1.2.1(2)HCl, 1.2.1(4)HCl or 1.2.1(5)HCl. Each group consisted of at least 8 animals. The animals were placed in the light section, and the latent period of the first entry into the dark chamber was registered. Then the vertical door was shut and the animal was punished by 0.6 mA DC current for 3 seconds. After that the animal was returned to its living cage. In 22-24 hours the same animal was placed again in the light section of the shuttle chamber and the latent period of its first entry into the dark section, the total time of its stay in the light section and the number of entries into the dark section were registered. Each observation lasted for 5 minutes.
The experiment was carried out as in example 7. […]

SHK male mice = assay: Novel object recognition by mice against the background of Scopolamine and MK-801; format: in vivo; conditions: Scopolamine 1 mg/kg, MK-801 0.2 mg/kg
Description: The experiments were carried out in a cross like maze which consisted of 4 peripheral arms connected with the central chamber by 7×7 cm holes. The maze was made of black plastic and its arms were of 14×14×14 cm size. The top cover of the maze was transparent.
A mouse was placed in the central chamber of the maze and allowed to investigate the environment. Criterion of entering an arm by the animal was detecting of all its paws inside the arm. The test was considered to be completed when the mouse had accomplished 12 transitions between the arms (having made 13 visits). The floor of the maze was cleaned after each animal.
The test was carried out twice with each mouse with 1 hour interval.
During the first test each arm of the maze contained a circular plastic cup of 3 cm height and 7 cm diameter. In the second test the cover of each two opposing arms was replaced by a conical glass flask of 7 cm height and 4 cm across the bottom. The time the mouse spent in each arm of the maze was registered and the index of novel object recognition was calculated as the ratio of the time the mouse spent in the arms with the flasks to the time it spent in all arms of the maze. If no preference was given to the arms with novel objects the index was 0.5.
The mice spend more time in the arm containing novel objects that results in an increasing of recognition index. Scopolamine (1 mg/kg) and MK-801 (0.2 mg/kg) disturbed learning (memory) that leads to the lowering of recognition index.

BALB/c male mice [2] = assay: Mice Training in the Morris Water maze, memory disturbed by Scopolamine; format: in vivo; conditions: Scopolamine 0.6 mg/kg, 1.2.1(5)HCl 0.1 mg/kg, 1.2.1(1)HCl 1 mg/kg, Tacrine 3 mg/kg
Description: A round pool of 100 cm in diameter and sides height of 30 cm was used. It was filled with water at 20-22° C. A round ceramic platform of 14 cm height was placed in the pool. Animals's behavior was registered with an automated computer video system in combination with software package of movement analysis Any-maze (Stoelting Co., US). The experiments were carried out on aged male mice of BALB/c line weighing 20-24 grams. Before the experiments mice suitable for training were selected. This was done by placing the platform 1 cm above the water level and putting an animal on the platform for 20 seconds. Then the mouse was sunk into the water on the opposite side of the pool, allowed to find the platform and climb it for 60 seconds, where it was left for additional 20 seconds. After that the mouse was repeatedly immersed into the water on the opposite side of the pool and allowed to look for the platform. If it failed in finding the platform within 60 seconds the experimentator helped it to find the platform and climb it. If the mice couldn't find the platform itself in two consecutive attempts it was excluded from the experiment. During the next two days the platform was placed 0.5 cm lower the water level. Every day the mice were given four attempts for finding the platform within 60 seconds. The time interval between the attempts was 20 seconds, during which the mice stayed on the platform. Every day before the first attempt the mice was placed on the platform for 20 seconds. The time needed for finding and climbing the platform was registered. The animals were sunk into water in two different places on the side of the pool opposite to the platform. […] The animals of the control group were injected with physiological solution. At least 8 animals were used in each group. On the third day the platform was removed and each animal was placed one time into the pool for a period of 60 seconds. The time each mouse spent in the area where the platform had been located during the previous days was registered. […]

BALB/c male mice [3] = assay: Mice Behavior in the Elevated Plus Maze; format: in vivo
Source text: Plus Maze”. The length of each arm in the labyrinth was 30 cm, the width was 5 cm, the height of the walls was 15 cm. Two opposite arms were closed from sides and end faces by transparent walls, the other two arms were lit and opened. A mouse was placed in the center of the maze and for the next five minutes the number of entries the open and closed sections and the time spent in each type of arms was registered. […]

H1 histamine receptor = H1 histamine receptor (Homo sapiens, UniProt P35367); assay: Histamine-induced intracellular calcium in SK-N-SH cells (Fura 2 AM), Phase 1: block of calcium entry
Description: SK-N-SH Cells (ATCC, USA) were grown in DMEM medium (Invitrogen, USA) containing 10% fetal calf serum (FBS) and Penicillin-Streptomycin antibiotics, in CO2 incubator (5% CO2) until getting the cell density 1*10^5 cells/cm^2. The cells were removed from the surface of the flask with TrypLE Express reagent (Invitrogen, USA), then collected by means of centrifugation and resuspended in Hybridoma Serum Free Medium (HSFM, Sigma, USA) providing the concentration of 4*10^6 cells/ml. For measuring the intracellular concentration of calcium the cells were loaded with the calcium-sensitive fluorescent dye Fura 2 AM (Invitrogen, USA) by incubating their suspension with the dye for 30 minutes at room temperature. Again, the cells were collected by centrifugation, resuspended in HSFM; incubated for 15 minutes, recollected by centrifugation, washed twice with HSFM and resuspended in HSFM setting up the concentration 4*10^6 cells/ml. The cells were diluted with an operating buffer (NaCl 0.145 M, KCl 0.0054 M, NaH2PO4 0.001 M, MgSO4 0.0008 M, CaCl2 0.0018 M, HEPES 0.03 M, D-glucose 0.0112 M pH 7.4) to the concentration of 1*10^5 cells/ml in a measuring cell with a magnet stirrer, after that the fluorescence registration was carried out in the mode of two-wavelength excitement (340 and 380 nm, respectively) with an emission wavelength of 510 nm (F1 and F2, respectively). In 20 seconds after the beginning of registration, 10 mM of histamine water solution was added (a final concentration is 10 μM). […] In order to estimate the biological activity of the compounds, their serial DMSO dilutions were prepared and the correlation between the influence of the compound on the histamine induced calcium stream and its concentration was determined. The transforming fluorescent signal into calcium concentration was carried out by means of the equation built in the program Super Ion Probe (Shimadzu) software. For this purpose the maximum concentration of free calcium was determined by adding 0.1 mg/ml of digitonine (Sigma, USA) up to 0.1 mg/ml, while the zero calcium concentration—by adding of ethylene-diamin-tetraacetate (EDTA) up to 10 mM. Kinetic curves of lowering intracellular calcium concentration after the addition of the tested compound in the presence of histamine were calculated with a single-phase exponential model using the Prism 4 software (GraphPad Software, Inc.): [Ca]=[Ca]max*exp(−K*T)+[Ca]min where T is the time after the tested compound was added, [Ca]max and [Ca]min are the maximum (the peak value after the addition of histamine) and the minimum (the equilibrium level the curve approached after the addition of the tested compound) concentrations of intracellular calcium, K is the rate constant of intracellular calcium concentration lowering calculated by minimization of least square deviations.
The calculated rate constants of calcium concentration lowering (K) were used to determine their dependence on the tested compound concentration (C); and by means of the program Prism 4 using this dependence the values of EC50 (the concentration of the tested compound corresponding to half-maximum increasing of the rate constant of intracellular calcium concentration lowering) were determined by virtue of four parameter equation
[formula] where KBkg and Kmax are the rate constants of calcium concentration lowering without and in the presence of infinitely large concentration of the tested compound, respectively; N is Hill's coefficient.

5-HT6 receptor = target: T1, 5-HT6 receptor (Homo sapiens, UniProt P50406); assay: Inhibition of serotonin-stimulated intracellular cAMP in HEK 293 cells with expressed 5-HT6 receptor (LANCE cAMP); format: cell-based; conditions: serotonin-induced cAMP
T1 construct: expressed in transfected cells; host or cells: HEK 293
Description: The cells HEK 293 (kidney cells of a human embryon) with an artificially expressed 5-HT6 receptor, activation of which with serotonin results in intracellular cAMP increasing, were used. The concentration of intracellular cAMP was determined using a LANCE cAMP reagent (PerkinElmer) by the method described by the manufacturer: [http://las.perkinelmer.com/content/Manuals/MAN_LANCEcAMP384KitUser.pdf].
The effectiveness of the compounds was estimated on the basis of their ability to reduce the concentration of intracellular cAMP induced by serotonin, FIG. 1.

BALB/c male mice [4] = assay: Passive Avoidance of Mice in a Shuttle Chamber, memory disturbed by scopolamine (Example 7); format: in vivo; conditions: scopolamine 0.3 mg/kg
Description: A shuttle chamber (Ugo Basile, Italy) consisted of two sections was used. […] The sections were connected through a hole which could be shut with a vertical door. The floor was made of transverse metal bars on which DC current impulses could be fed. Experiments were carried out in aged male mice of BALB/c line weighing 20-24 grams. On the first day of the experiment 30 minutes before training the mice were injected intraintestinally with physiological solution of scopolamine (0.3 mg/kg) or Scopolamine in combination with antagonists of 5-HT6 receptors 1.2.1(2)HCl, 1.2.1(4)HCl or 1.2.1(5)HCl. Each group consisted of at least 8 animals. The animals were placed in the light section, and the latent period of the first entry into the dark chamber was registered. Then the vertical door was shut and the animal was punished by 0.6 mA DC current for 3 seconds. After that the animal was returned to its living cage. In 22-24 hours the same animal was placed again in the light section of the shuttle chamber and the latent period of its first entry into the dark section, the total time of its stay in the light section and the number of entries into the dark section were registered. Each observation lasted for 5 minutes. The experiment was carried out during the day time in an isolated laboratory using white noise at a level of about 70 decibel above the human hearing threshold. Scopolamine causes the disturbance of training (memory loss) which results in […] and a decreased number of entries into the dark section. The fact that 5-HT6 receptor antagonists can improve the learning ability that has been disturbed by scopolamine is regarded as evidence for their nootropic effect.

Chain of H1 histamine receptor (P35367 whole entry): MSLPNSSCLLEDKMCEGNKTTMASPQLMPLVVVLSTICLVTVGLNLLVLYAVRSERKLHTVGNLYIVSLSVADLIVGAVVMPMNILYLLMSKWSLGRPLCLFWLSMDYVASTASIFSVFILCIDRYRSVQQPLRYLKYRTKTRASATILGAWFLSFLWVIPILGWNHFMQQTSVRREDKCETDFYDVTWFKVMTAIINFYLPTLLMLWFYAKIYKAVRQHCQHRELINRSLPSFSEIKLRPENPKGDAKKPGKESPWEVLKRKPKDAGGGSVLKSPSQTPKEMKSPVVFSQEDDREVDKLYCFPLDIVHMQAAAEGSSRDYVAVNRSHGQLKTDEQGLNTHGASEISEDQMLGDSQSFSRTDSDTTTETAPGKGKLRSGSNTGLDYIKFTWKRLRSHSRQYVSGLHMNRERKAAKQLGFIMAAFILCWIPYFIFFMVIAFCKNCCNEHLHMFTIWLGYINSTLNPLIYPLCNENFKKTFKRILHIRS
T1 sequence (P50406 whole entry): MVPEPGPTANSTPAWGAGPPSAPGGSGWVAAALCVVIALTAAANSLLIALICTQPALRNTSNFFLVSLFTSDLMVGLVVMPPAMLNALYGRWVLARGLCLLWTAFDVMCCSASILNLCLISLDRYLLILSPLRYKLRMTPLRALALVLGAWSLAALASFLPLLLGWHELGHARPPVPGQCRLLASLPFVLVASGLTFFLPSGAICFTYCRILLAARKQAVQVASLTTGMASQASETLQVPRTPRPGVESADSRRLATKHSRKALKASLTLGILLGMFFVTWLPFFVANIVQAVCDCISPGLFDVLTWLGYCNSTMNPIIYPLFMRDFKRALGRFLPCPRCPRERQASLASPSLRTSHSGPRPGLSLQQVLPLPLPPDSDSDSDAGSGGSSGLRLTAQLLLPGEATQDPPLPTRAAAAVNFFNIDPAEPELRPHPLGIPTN

| Compound | nootropic action (novel object recognition, FIG. 13-14) (SHK male mice) | EC50 (H1 histamine receptor) [µM] | IC50 (5-HT6 receptor) [µM] | further results |
| --- | --- | --- | --- | --- |
| Cc1ccc2c(c1)c1c(n2CCc2ccccc2)CCN(C)C1.Cl [1.2.1(1)HCl, 2,8-dimethyl-5-(2-phenethyl)-2,3,4,5-tetrahydro-1H-pyrido[4,3-b]indole hydrochloride] | nootropic action, the level of which is the most prominent |  |  | nootropic action (passive avoidance, FIGS. 5-10) (BALB/c male mice [1]): highest activity; improvement of mice's training (Morris water maze, FIG. 11-12) (BALB/c male mice [2]): statistically significant improvement of mice's training; tranquilizing action (elevated plus maze, FIG. 19-21) (BALB/c male mice [3]): exhibit a tranquilizing action, which is the most prominent |
| Cc1ccc2c(c1)c1c(n2CCc2ccncc2)CCN(C)C1.Cl [1.2.1(2)HCl, 2,8-dimethyl-5-[2-(pyridin-4-yl)ethyl]-2,3,4,5-tetrahydro-1H-pyrido[4,3-b]indole hydrochloride] |  | 0.16 | 0.43 | nootropic action (passive avoidance, FIGS. 2-4) (BALB/c male mice [4]): exhibit a nootropic action which is the most prominent |
| Cc1ccc2c(c1)c1c(n2CCc2ccccn2)CCN(C)C1.Cl [1.2.1(4)HCl, 2,8-dimethyl-5-[2-(pyridin-2-yl)ethyl]-2,3,4,5-tetrahydro-1H-pyrido[4,3-b]indole hydrochloride] |  | 0.5 |  | nootropic action (passive avoidance, FIGS. 2-4) (BALB/c male mice [4]): exhibit a nootropic action which is the most prominent |
| Cc1ccc2c(c1)c1c(n2CCc2ccc(C)nc2)CCN(C)C1.Cl [1.2.1(5)HCl, 2,8-dimethyl-5-[2-(6-methylpyridin-3-yl)ethyl]-2,3,4,5-tetrahydro-1H-pyrido[4,3-b]indole hydrochloride, reference compound] | nootropic action | 0.16 | 4.4 | nootropic action (passive avoidance, FIGS. 5-10) (BALB/c male mice [1]): act as nootropic; improvement of mice's training (Morris water maze, FIG. 11-12) (BALB/c male mice [2]): statistically significant improvement of mice's training; tranquilizing action (elevated plus maze, FIG. 19-21) (BALB/c male mice [3]): exhibit a tranquilizing action; nootropic action (passive avoidance, FIGS. 2-4) (BALB/c male mice [4]): exhibit a nootropic action |
| CN1CCc2c(c3cc(F)ccc3n2C#Cc2ccccc2)C1 [1.3.1(1), 2-methyl-5-(phenylethynyl)-8-fluoro-2,3,4,5-tetrahydro-1H-pyrido[4,3-b]indole] |  | > 3 | 5.77 |  |
| CN1CCc2c(c3cc(F)ccc3n2C#Cc2cccnc2)C1 [1.3.1(3), 2-methyl-5-(pyridin-3-ylethynyl)-8-fluoro-2,3,4,5-tetrahydro-1H-pyrido[4,3-b]indole] |  | > 10 | > 30 |  |
| Cc1ccc2c(c1)c1c(n2C#Cc2ccccc2)CCN(C)C1 [1.3.1(5), 2,8-dimethyl-5-(phenylethynyl)-2,3,4,5-tetrahydro-1H-pyrido[4,3-b]indole] |  | > 10 | 8.71 |  |
| Cc1ccc2c(c1)c1c(n2C#Cc2cccnc2)CCN(C)C1 [1.3.1(7), 2,8-dimethyl-5-(pyridin-3-ylethynyl)-2,3,4,5-tetrahydro-1H-pyrido[4,3-b]indole] |  | > 10 | > 30 |  |
| O=C1CC2(CCCC2)CC(=O)N1CCCCN1CCN(c2ncccn2)CC1 [Buspiron] |  |  |  | tranquilizing action (elevated plus maze, FIG. 19-21) (BALB/c male mice [3]): exhibit a tranquilizing action |
| CC12CC3CC(C)(C1)CC(N)(C3)C2 [Memantine] | nootropic action |  |  |  |
| O=S(=O)(c1ccccc1)c1cnc2c(N3CCNCC3)cccc2c1 [SB-742457] | nootropic action |  |  |  |
| Nc1c2c(nc3ccccc13)CCCC2 [Tacrine] |  |  |  | improvement of mice's training (Morris water maze, FIG. 11-12) (BALB/c male mice [2]): statistically significant improvement of mice's training |
